Assay results from patent EP0205308B1, “Scytophycins” (Moore, Richard Elliott, priority 1985, dated 1986).
Marks after values point to notes of the source that are not given here.

What was measured:
Rhizoctonia solani X767 = assay: In vitro agar-diffusion test; type: cell-based
Procedure: (§1) The activity of scytophycin compounds against pathogenic fungi in standard in vitro agar-diffusion tests, using ¼"(6mm) discs holding ~30 µL of test solution, is illustrated in Tables 6-12.

[1] = test system: Sclerotina homoeocarpa X768; assay: In vitro agar-diffusion test; type: cell-based
Procedure: as §1

NIH/3T3 mouse fibroblast = assay: Cytotoxicity, minimum toxic dose (method of Furusawa and Cutting); type: cell-based; conditions: NIH/3T3 mouse fibroblast cell line
Procedure: (§2) The scytophycin compounds are potent cytotoxins. For example, the minimum toxic doses of scytophycins A and B against KB human epidermoid carcinoma and NIH/3T3 mouse fibroblast cell lines were determined to be 1 ng/mL and 0.65 ng/mL, respectively, using methods described by E. Furusawa and W. Cutting in Ann. New York Acad. Sci. 173, 669-679 (1970).

[2] = test system: KB human epidermoid carcinoma; assay: as above; type: cell-based; conditions: KB human epidermoid carcinoma cell line
Procedure: as §2

[3] = type: in vivo; conditions: mice, administered IP
Procedure: At sublethal doses, the scytophycin compounds are antineoplastic agents. The minimum lethal dose of scytophycin B in mice, when administered IP, is about 650 µg/kg.

Candida albicans X657 = assay: In vitro agar-diffusion test; type: cell-based; conditions: for inhibition of fungal pathogen: Candida albicans, general statement in words
Procedure: as §1

Pythium ultimum X751 = assay: In vitro agar-diffusion test; type: cell-based; conditions: for Zone of Inhibition Size: Table 6, level 1 mg/mL
Procedure: as §1

Neurospora crassa X846 = assay: In vitro agar-diffusion test; type: cell-based
Procedure: as §1

[4] = test system: Saccharomyces pastorianus X52; assay: In vitro agar-diffusion test; type: cell-based; parameters: key: T = trace
Procedure: as §1

[5] = test system: P388 Lymphocytic Leukemia; assay: Survival of mice with intraperitoneally implanted tumor; type: in vivo, BDF1 Mice; conditions: for activity against intraperitoneally implanted tumor: P388 lymphocytic leukemia, result in words
Procedure: (§3) Female hybrid BDF1 (DBA/2 x C57BL/6) mice were used for the evaluation of the scytophycins against the three tumors. The mice were first inoculated intraperitoneally with 10⁶ cells of P388 ascites leukemia (P388), 2 to 6 x 10⁵ cells of Lewis lung carcinoma (LLC) homogenate, or 0.3 mL of 20% homogenate of B16 tumor (B16) masses. Drug treatment was started the next day (day 1) and continued daily for 6-9 days.

Lewis Lung Carcinoma = assay: as above; type: in vivo, BDF1 Mice; conditions: for % T/C / Mean Survival Time, Days Treated: LLC, 9 days of treatment; for activity against intraperitoneally implanted tumor: Lewis lung carcinoma, result in words
Procedure: as §3

B16 Melanoma = assay: as above; type: in vivo, BDF1 Mice; conditions: for activity against intraperitoneally implanted tumor: B16 melanoma, result in words
Procedure: as §3

[6] = P388, 0.5 µg/Mouse, 8 days of treatment
[7] = P388, 0.65 µg/Mouse, 8 days of treatment
[8] = P388, 1 µg/Mouse, 8 days of treatment
[9] = P388, 2 µg/Mouse, 8 days of treatment
[10] = P388, 3.25 µg/Mouse, 6 days of treatment
[11] = P388, 4 µg/Mouse, 8 days of treatment
[12] = B16, 2 µg/Mouse, 8 days of treatment
[13] = B16, 4 µg/Mouse, 8 days of treatment
[14] = B16, 8 µg/Mouse, 8 days of treatment

Scytophycin B
Size of Zone of Inhibition (mm) (Rhizoctonia solani X767; Table 10, 0.01 mg/mL): 30 mm
Size of Zone of Inhibition (mm) (Rhizoctonia solani X767; Table 10, 0.1 mg/mL): >30 mm
Size of Zone of Inhibition (mm) (Rhizoctonia solani X767; Table 10, 1.0 mg/mL): >30 mm
Size of Zone of Inhibition (mm) (Rhizoctonia solani X767; Table 11, 0.33 mg/mL): 40 mm
Size of Zone of Inhibition (mm) (Rhizoctonia solani X767; Table 11, 1.0 mg/mL): 46^a mm
Size of Zone of Inhibition (mm) ([1]; Table 10, 0.01 mg/mL): >30 mm
Size of Zone of Inhibition (mm) ([1]; Table 10, 0.1 mg/mL): >30 mm
Size of Zone of Inhibition (mm) ([1]; Table 10, 1.0 mg/mL): >30 mm
Size of Zone of Inhibition (mm) ([1]; Table 11, 0.33 mg/mL): 40 mm
Size of Zone of Inhibition (mm) ([1]; Table 11, 1.0 mg/mL): 44 mm
minimum toxic dose (NIH/3T3 mouse fibroblast): 0.65 ng/mL
minimum toxic dose [2]: 0.65 ng/mL
minimum lethal dose [3]: about 650 µg/kg
inhibition of fungal pathogen (Candida albicans X657): inhibit
Size of Zone of Inhibition (mm) (Candida albicans X657; Table 7, 0.01 mg/mL): 21 mm
Size of Zone of Inhibition (mm) (Candida albicans X657; Table 7, 0.1 mg/mL): 22 mm
Size of Zone of Inhibition (mm) (Candida albicans X657; Table 7, 1 mg/mL): 26 mm
Size of Zone of Inhibition (mm) (Candida albicans X657; Table 8, 0.33 mg/mL): 25 mm
Size of Zone of Inhibition (mm) (Candida albicans X657; Table 8, 1 mg/mL): 31 mm
Zone of Inhibition Size (Pythium ultimum X751): 37 mm
Size of Zone of Inhibition (mm) (Pythium ultimum X751; Table 10, 0.01 mg/mL): 30 mm
Size of Zone of Inhibition (mm) (Pythium ultimum X751; Table 10, 0.1 mg/mL): 30^a mm
Size of Zone of Inhibition (mm) (Pythium ultimum X751; Table 10, 1.0 mg/mL): 30^a mm
Size of Zone of Inhibition (mm) (Pythium ultimum X751; Table 11, 0.33 mg/mL): 30 mm
Size of Zone of Inhibition (mm) (Pythium ultimum X751; Table 11, 1.0 mg/mL): 30 mm
Size of Zone of Inhibition (mm) (Neurospora crassa X846; Table 7, 0.01 mg/mL): 30 mm
Size of Zone of Inhibition (mm) (Neurospora crassa X846; Table 7, 0.1 mg/mL): 27 mm
Size of Zone of Inhibition (mm) (Neurospora crassa X846; Table 7, 1 mg/mL): 32 mm
Size of Zone of Inhibition (mm) (Neurospora crassa X846; Table 8, 0.33 mg/mL): 36 mm
Size of Zone of Inhibition (mm) (Neurospora crassa X846; Table 8, 1 mg/mL): 36 mm
Size of Zone of Inhibition (mm) ([4]; Table 7, 0.01 mg/mL): 20 mm
Size of Zone of Inhibition (mm) ([4]; Table 7, 0.1 mg/mL): 20 mm
Size of Zone of Inhibition (mm) ([4]; Table 7, 1 mg/mL): 27 mm
Size of Zone of Inhibition (mm) ([4]; Table 8, 0.33 mg/mL): 24 mm
Size of Zone of Inhibition (mm) ([4]; Table 8, 1 mg/mL): 24 mm
% T/C [5, 6]: 100%
Mean Survival Time, Days Treated [5, 6]: 9.4 days
% T/C [5, 7]: 125%
Mean Survival Time, Days Treated [5, 7]: 10.0 days
% T/C [5, 8]: 113%
Mean Survival Time, Days Treated [5, 8]: 10.6 days
% T/C [5, 9]: 130%
Mean Survival Time, Days Treated [5, 9]: 12.2 days
% T/C [5, 10]: 136%
Mean Survival Time, Days Treated [5, 10]: 11.4 days
% T/C [5, 11]: 128%
Mean Survival Time, Days Treated [5, 11]: 12.0 days
activity against intraperitoneally implanted tumor [5]: moderate activity
% T/C (Lewis Lung Carcinoma; 0.5 µg/Mouse): 106%
Mean Survival Time, Days Treated (Lewis Lung Carcinoma; 0.5 µg/Mouse): 10.4 days
% T/C (Lewis Lung Carcinoma; 1 µg/Mouse): 114%
Mean Survival Time, Days Treated (Lewis Lung Carcinoma; 1 µg/Mouse): 11.2 days
% T/C (Lewis Lung Carcinoma; 2 µg/Mouse): 124%
Mean Survival Time, Days Treated (Lewis Lung Carcinoma; 2 µg/Mouse): 12.2 days
% T/C (Lewis Lung Carcinoma; 4 µg/Mouse): 129%
Mean Survival Time, Days Treated (Lewis Lung Carcinoma; 4 µg/Mouse): 12.6 days
activity against intraperitoneally implanted tumor (Lewis Lung Carcinoma): moderate activity
% T/C (B16 Melanoma; [12]): 102%
Mean Survival Time, Days Treated (B16 Melanoma; [12]): 19.4 days
% T/C (B16 Melanoma; [13]): 104%
Mean Survival Time, Days Treated (B16 Melanoma; [13]): 19.8 days
% T/C (B16 Melanoma; [14]): 63%
Mean Survival Time, Days Treated (B16 Melanoma; [14]): 12.0 days
toxicity remark in % T/C column (B16 Melanoma; [14]): toxic
activity against intraperitoneally implanted tumor (B16 Melanoma): did not exhibit activity

Scytophycin C
Size of Zone of Inhibition (mm) (Rhizoctonia solani X767; Table 12, 0.5 mg/mL): 30 mm
Size of Zone of Inhibition (mm) ([1]; Table 12, 0.5 mg/mL): 32 mm
Size of Zone of Inhibition (mm) (Candida albicans X657; Table 9, 1 mg/mL): 22 mm
Size of Zone of Inhibition (mm) (Pythium ultimum X751; Table 12, 0.5 mg/mL): 12^a mm
Size of Zone of Inhibition (mm) (Neurospora crassa X846; Table 9, 1 mg/mL): 30 mm
Size of Zone of Inhibition (mm) ([4]; Table 9, 1 mg/mL): 17 mm

Scytophycin A
Size of Zone of Inhibition (mm) (Rhizoctonia solani X767; Table 10, 0.01 mg/mL): 13 mm
Size of Zone of Inhibition (mm) (Rhizoctonia solani X767; Table 10, 0.1 mg/mL): 23 mm
Size of Zone of Inhibition (mm) (Rhizoctonia solani X767; Table 10, 1.0 mg/mL): 30 mm
Size of Zone of Inhibition (mm) ([1]; Table 10, 0.01 mg/mL): 20 mm
Size of Zone of Inhibition (mm) ([1]; Table 10, 0.1 mg/mL): 30 mm
Size of Zone of Inhibition (mm) ([1]; Table 10, 1.0 mg/mL): >30 mm
minimum toxic dose (NIH/3T3 mouse fibroblast): 1 ng/mL
minimum toxic dose [2]: 1 ng/mL
inhibition of fungal pathogen (Candida albicans X657): inhibit
Size of Zone of Inhibition (mm) (Candida albicans X657; Table 7, 0.01 mg/mL): 12 mm
Size of Zone of Inhibition (mm) (Candida albicans X657; Table 7, 0.1 mg/mL): 19 mm
Size of Zone of Inhibition (mm) (Candida albicans X657; Table 7, 1 mg/mL): 23 mm
Zone of Inhibition Size (Pythium ultimum X751): 37 mm
Size of Zone of Inhibition (mm) (Pythium ultimum X751; Table 10, 0.01 mg/mL): 20 mm
Size of Zone of Inhibition (mm) (Pythium ultimum X751; Table 10, 0.1 mg/mL): >30 mm
Size of Zone of Inhibition (mm) (Pythium ultimum X751; Table 10, 1.0 mg/mL): >30 mm
Size of Zone of Inhibition (mm) (Neurospora crassa X846; Table 7, 0.01 mg/mL): 18 mm
Size of Zone of Inhibition (mm) (Neurospora crassa X846; Table 7, 0.1 mg/mL): 25 mm
Size of Zone of Inhibition (mm) (Neurospora crassa X846; Table 7, 1 mg/mL): 30 mm
Size of Zone of Inhibition (mm) ([4]; Table 7, 0.01 mg/mL): T^a
Size of Zone of Inhibition (mm) ([4]; Table 7, 0.1 mg/mL): 17 mm
Size of Zone of Inhibition (mm) ([4]; Table 7, 1 mg/mL): 24 mm
% T/C [5, 8]: 125%
Mean Survival Time, Days Treated [5, 8]: 10.0 days
activity against intraperitoneally implanted tumor [5]: moderate activity
activity against intraperitoneally implanted tumor (Lewis Lung Carcinoma): moderate activity
activity against intraperitoneally implanted tumor (B16 Melanoma): did not exhibit activity
